Measurements published in article PMC2110886 (PLoS ONE, 2007).
Entries after “also recorded” stand apart in the source; their conditions may differ. Read-outs that look alike come from different tables or passages of the source.

Key:
[1] = Steady-state plasma pharmacokinetics, open-label randomized three-way crossover study, drugs alone or in combination; settings: for Tmax / half-life / AUC(0-t) / Cmax: human, in vivo; for effect of amantadine coadministration on PK (in words): oseltamivir 75 mg BID + amantadine 100 mg BID
[2] = parameters: method as in Symmetrel package insert; settings: ref Symmetrel package insert, cited from earlier work
[3] = cited from earlier work; for mean Cmax: twice daily oral dosing with 75 mg oseltamivir capsule; for mean Cmax / AUC0-12: ref Oseltamivir package insert; for AUC0-12: values reported earlier, 75 mg oseltamivir twice daily
[4] = tested on: all strains of influenza A and B tested, including H5N1; settings: no reference given; cited from earlier work
cytochrome P450 isoforms = tested on: cytochrome P450 isoforms; parameters: method as in Tamiflu package insert; settings: ref Tamiflu package insert; cited from earlier work
[5] = Safety and tolerability (adverse events) in the crossover study; settings: eight adverse events in total during the trial; 17 subjects
[6] = tested on: recombinant amantadine sensitive A/Vietnam/1203/04 (H5N1) virus; settings: mice, lethal challenge, equivalent human therapeutic doses, ref Ilyushina, in press; cited from earlier work
[7] = oseltamivir, combination therapy with amantadine 100 mg BID
[8] = oseltamivir, oseltamivir monotherapy 75 mg BID
[9] = oseltamivir carboxylate, combination therapy with amantadine 100 mg BID
[10] = oseltamivir carboxylate, oseltamivir monotherapy 75 mg BID
[11] = under fasted conditions, ref Tamiflu package insert
[12] = under fed conditions, ref Tamiflu package insert

CC(=O)NC12CC3CC(CC(C3)C1)C2 [Acetylamantadine, acetylamantadine]
detection of acetylamantadine in plasma ([1]; current study, seventeen volunteers, LLOQ approximately 5.00 ng/mL): not detected
plasma acetylamantadine as share of the concurrent amantadine plasma concentration ([2]; 5 of 12 healthy volunteers, 200 mg dose of amantadine): up to 80%
N-acetylated metabolite in human urine, share of the administered dose [2]: 5-15%
detection of acetylamantadine in plasma ([2]; remaining seven of 12 volunteers): not detected

CCOC(=O)C1=C[C@@H](OC(CC)CC)[C@H](NC(C)=O)[C@@H](N)C1 [Oseltamivir, oseltamivir, reference compound]
Tmax [1]: 0.85 h
half-life [1]: 1.83 h
AUC(0-t) ([1]; 75 mg): 0.161 µg·h/mL
Cmax ([1]; 75 mg): 0.0602 µg/mL
Tmax ([1]; 75 mg): 0.76 h
half-life ([1]; 75 mg): 1.85 h
effect of amantadine coadministration on PK (in words) [1]: did not meaningfully affect
apparent clearance, geometric mean [1, 7]: 505 L/h
apparent distribution volume, geometric mean [1, 7]: 1329 L
apparent clearance, geometric mean [1, 8]: 465 L/h
apparent distribution volume, geometric mean [1, 8]: 1245 L
exposure to oseltamivir as share of the total exposure ([3]; after oral dosing, ref Tamiflu package insert): less than 5%
share of absorbed oseltamivir eliminated by conversion to oseltamivir carboxylate ([3]; ref Tamiflu package insert): > 90%
mean Cmax [3]: 0.0652 µg/mL
AUC0-12 [3]: 0.112 µg·h/mL
effectiveness (in words) [4]: effective against all strains of influenza A and B tested, including H5N1
substrate for, or inhibitor of, cytochrome P450 isoforms (cytochrome P450 isoforms): Neither oseltamivir nor oseltamivir carboxylate is a substrate for, or inhibitor of, cytochrome P450 isoforms; also recorded: Neither oseltamivir nor oseltamivir carboxylate is a substrate for
number of adverse events reported, all mild [5]: three
animals protected from mortality [6]: 20%

CCC(CC)O[C@@H]1C=C(C(=O)O)C[C@H](N)[C@H]1NC(C)=O [Oseltamivir carboxylate, oseltamivir carboxylate]
Tmax [1]: 3.07 h
half-life [1]: 6.15 h
AUC(0-t) ([1]; 75 mg): 3.43 µg·h/mL
Cmax ([1]; 75 mg): 0.407 µg/mL
Tmax ([1]; 75 mg): 3.22 h
half-life ([1]; 75 mg): 6.09 h
effect of amantadine coadministration on PK (in words) [1]: did not meaningfully affect
apparent clearance, geometric mean [1, 9]: 22.3 L/h
apparent distribution volume, geometric mean [1, 9]: 197 L
apparent clearance, geometric mean [1, 10]: 21.9 L/h
apparent distribution volume, geometric mean [1, 10]: 192 L
share of an oral dose reaching the systemic circulation as oseltamivir carboxylate ([3]; oral oseltamivir phosphate, ref Tamiflu package insert): At least 75%
mean Cmax [3]: 0.348 µg/mL
area under the plasma concentration time curve [3, 11]: 6.218 µg·h/mL
peak plasma concentration [3, 11]: 551 ng/mL
area under the plasma concentration time curve [3, 12]: 6.069 µg·h/mL
peak plasma concentration [3, 12]: 441 ng/mL
AUC0-12 [3]: 2.719 µg·h/mL
substrate for, or inhibitor of, cytochrome P450 isoforms (cytochrome P450 isoforms): Neither oseltamivir nor oseltamivir carboxylate is a substrate for, or inhibitor of, cytochrome P450 isoforms; also recorded: Neither oseltamivir nor oseltamivir carboxylate is a substrate for
